Experimental findings from US9346761B2, “Arginine methyltransferase inhibitors and uses thereof” (Epizyme, Inc., priority 2013, dated 2016) are described below.

What is called IC50 is the concentration needed to halve the response being measured.

T1 sequence (O60678 with tags, fused parts or gaps): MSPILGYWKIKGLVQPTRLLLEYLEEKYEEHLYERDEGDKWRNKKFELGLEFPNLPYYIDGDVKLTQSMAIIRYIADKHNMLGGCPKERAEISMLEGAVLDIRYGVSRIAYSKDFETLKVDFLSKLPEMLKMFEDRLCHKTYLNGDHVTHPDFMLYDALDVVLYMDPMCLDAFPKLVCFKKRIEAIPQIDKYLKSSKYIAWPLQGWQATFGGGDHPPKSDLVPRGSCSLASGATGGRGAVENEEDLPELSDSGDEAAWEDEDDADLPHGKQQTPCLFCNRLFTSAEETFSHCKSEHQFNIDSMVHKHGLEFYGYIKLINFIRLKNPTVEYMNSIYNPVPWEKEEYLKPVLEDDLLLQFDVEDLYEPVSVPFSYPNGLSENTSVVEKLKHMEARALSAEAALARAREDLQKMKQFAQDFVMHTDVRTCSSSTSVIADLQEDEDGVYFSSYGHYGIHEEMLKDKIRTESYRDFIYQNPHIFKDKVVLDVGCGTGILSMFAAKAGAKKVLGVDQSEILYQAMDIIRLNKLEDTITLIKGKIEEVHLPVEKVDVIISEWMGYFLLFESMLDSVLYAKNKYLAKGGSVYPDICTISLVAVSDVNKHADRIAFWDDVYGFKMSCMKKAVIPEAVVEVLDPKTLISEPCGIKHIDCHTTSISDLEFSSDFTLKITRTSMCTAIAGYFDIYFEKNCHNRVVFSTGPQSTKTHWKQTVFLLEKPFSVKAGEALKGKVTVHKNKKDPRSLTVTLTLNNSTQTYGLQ

This test concerns the target T1, Full-length human PRMT3 (Homo sapiens, UniProt O60678).
T1 construct: GST-tagged PRMT3; made in house; host or cells: E. coli BL21(DE3) Gold (pGEX-KG)
In words: PRMT3 biochemical assay (3H-SAM Flashplate, peptide substrate). The method in brief: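 GST-tagged full-length PRMT3 (0.5 nM, E. coli-expressed) preincubated 30 min at room temperature with compound, then 330 nM biotinylated peptide, 100 nM 3H-SAM plus 1.8 uM SAM in Bicine pH 7.6, 2% DMSO.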
In turn, `CN(CCN)Cc1cn[nH]c1-c1ccc(F)cc1` [Compound 1] returned an IC50 of 1.01 to 3 µM.

As for `CNCCN(C)Cc1c[nH]nc1-c1ccc(F)cc1` [Compound 2, N^1-((3-(4-fluorophenyl)-1H-pyrazol-4-yl)methyl)-N^1,N^2-dimethylethane-1,2-diamine], the IC50 fell in the range of 3.01 to 10 µM.

Compound `CN(CCN)Cc1cn(C)nc1-c1ccc(F)cc1` [Compound 3] showed an IC50 above 10 µM.

Compound `CN(CCN)Cc1cnn(C)c1-c1ccc(F)cc1` [Compound 4] showed an IC50 above 10 µM.

Consider `CCN(CCNC)Cc1c[nH]nc1-c1ccc(F)cc1` [Compound 9], for which the IC50 lay in the range of 3.01 to 10 µM.

With `CNCCN(C)Cc1cnn(C)c1-c1ccc(F)cc1` [Compound 10], the IC50 is above 10 µM.

With `CNCCN(C)Cc1cn(CC2CCOCC2)nc1-c1ccc(F)cc1` [Compound 11], the IC50 is above 10 µM.

The compound `CNCCN(C)Cc1cnn(CC2CCOCC2)c1-c1ccc(F)cc1` [Compound 12] gave an IC50 above 10 µM.

With `CNCCN(C)Cc1c[nH]nc1-c1cccc(N)c1` [Compound 32], the IC50 was in the range of 1.01 to 3 µM.

For `CNCCN(C)Cc1c[nH]nc1-c1ccc(CC#N)cc1` [Compound 34], the IC50 is above 10 µM.

As to `CNCCN(C)Cc1c[nH]nc1-c1ccccc1O` [Compound 35], the IC50 was above 10 µM.

Take `CNCCN(C)Cc1c[nH]nc1-c1ccccc1Oc1ccccc1` [Compound 36]: the IC50 is above 10 µM.

`CNCCN(C)Cc1c[nH]nc1-c1cccc(OC(F)(F)F)c1` [Compound 39] yielded an IC50 above 10 µM.

`CNCCN(C)Cc1c[nH]nc1-c1ccccc1NS(C)(=O)=O` [Compound 41] yielded a half-inhibitory concentration (IC50) above 10 µM.

In the case of `CNCCN(C)Cc1c[nH]nc1-c1cccc(NC(C)=O)c1` [Compound 42], the IC50 lay within 1.01 to 3 µM.

In the case of `CNCCN(C)Cc1c[nH]nc1-c1cccc(C(C)=O)c1` [Compound 44], the IC50 lay in the range of 3.01 to 10 µM.

Compound `CNCCN(C)Cc1c[nH]nc1-c1ccc(C(=O)c2ccccc2)cc1` [Compound 45] came in with an IC50 of 3.01 to 10 µM.

`CNCCN(C)Cc1c[nH]nc1-c1ccccc1-c1ccccc1` [Compound 46]: the IC50 is above 10 µM.

`CNCCN(C)Cc1c[nH]nc1-c1ccc(-c2ccccc2)cc1` [Compound 47]: the IC50 fell in the range of 0.101 to 1 µM.

In turn, `CNCCN(C)Cc1c[nH]nc1-c1ccccc1F` [Compound 48] came in with an IC50 above 10 µM.

The compound `CNCCN(C)Cc1c[nH]nc1-c1ccc(F)cc1F` [Compound 49] came in with a 50% inhibitory concentration (IC50) of 3.01 to 10 µM.

With `CNCCN(C)Cc1c[nH]nc1-c1cc(F)ccc1F` [Compound 50], the IC50 is above 10 µM.

As to `CNCCN(C)Cc1c[nH]nc1-c1ccc(F)c(F)c1` [Compound 51], the IC50 fell in the range of 3.01 to 10 µM.

Take `CNCCN(C)Cc1c[nH]nc1-c1ccc(OC)c(F)c1` [Compound 52]: the IC50 was 3.01 to 10 µM.

As for `CNCCN(C)Cc1c[nH]nc1-c1cc(Cl)ccc1OC` [Compound 53], the IC50 is above 10 µM.

Take `CNCCN(C)Cc1c[nH]nc1-c1cccc(OC)c1OC` [Compound 54]: the IC50 is above 10 µM.

`CNCCN(C)Cc1c[nH]nc1-c1ccc(OC)cc1OC` [Compound 55] had an IC50 above 10 µM.

As to `CNCCN(C)Cc1c[nH]nc1-c1c(OC)cccc1OC` [Compound 56], the IC50 was above 10 µM.

Take `CNCCN(C)Cc1c[nH]nc1-c1cccc2ccccc12` [Compound 57]: the IC50 lay in the range of 3.01 to 10 µM.

For the compound `CNCCN(C)Cc1c[nH]nc1-c1ccc2ccccc2c1` [Compound 58], the IC50 was 3.01 to 10 µM.

As to `CNCCN(C)Cc1cn(CCC(O)CO)nc1-c1ccc(F)cc1` (stereo not shown) [Compound 59], the IC50 is above 10 µM.

`CCNCCN(C)Cc1c[nH]nc1-c1ccc(F)cc1` [Compound 60]: the IC50 is above 10 µM.

In turn, `COCCn1cc(CN(C)CCN(C)C)c(-c2ccc(F)cc2)n1` [Compound 61] returned an IC50 above 10 µM.

Take `CCN(CCN)Cc1c[nH]nc1-c1ccc(F)cc1` [Compound 62]: the IC50 was 3.01 to 10 µM.

`CCCN(CCN)Cc1c[nH]nc1-c1ccc(F)cc1` [Compound 63] showed an IC50 above 10 µM.

Compound `COCCn1ncc(CN(C)CCN(C)C)c1-c1ccc(F)cc1` [Compound 64] showed an IC50 above 10 µM.

For `CN(CCN)Cc1cnn(CCO)c1-c1ccc(F)cc1` [Compound 65], the IC50 was above 10 µM.

Compound `CN(CCN)Cc1cn(CCO)nc1-c1ccc(F)cc1` [Compound 66] returned an IC50 above 10 µM.

On to `CC(C)Oc1ccc(-c2n[nH]cc2CN(C)CCN)cc1` [Compound 67], for which the IC50 lay within 3.01 to 10 µM.

The compound `CN(CCN)Cc1c[nH]nc1-c1ccc(C#N)cc1` [Compound 68] displayed an IC50 of 3.01 to 10 µM.

`CN(CCN)Cc1n[nH]cc1-c1ccc(F)cc1` [Compound 69]: the IC50 is above 10 µM.

With `CN(CCN)Cc1c[nH]nc1-c1cccc(C#N)c1` [Compound 70], the IC50 was above 10 µM.

The compound `CN(CCN)Cc1c[nH]nc1-c1cccc(F)c1` [Compound 71] gave an IC50 above 10 µM.

On to `CN(CCN)Cc1c[nH]nc1-c1ccccc1F` [Compound 72], for which the IC50 was above 10 µM.

As for `CN(CCN)Cc1c[nH]nc1-c1ccccc1` [Compound 73], the IC50 was above 10 µM.

The compound `CN(CCN)Cc1c[nH]nc1-c1ccc(C(C)(C)C)cc1` [Compound 74] showed an IC50 above 10 µM.

Compound `CC(C)N(CCN)Cc1c[nH]nc1-c1ccc(F)cc1` [Compound 75] gave an IC50 above 10 µM.

For the compound `CN(CCN)Cc1cn(CC(O)CO)nc1-c1ccc(F)cc1` (stereo not shown) [Compound 76], the IC50 is above 10 µM.

`CN(CCN)Cc1cn(C2COC2)nc1-c1ccc(F)cc1` [Compound 77] had an IC50 of 3.01 to 10 µM.

`NCCN(Cc1c[nH]nc1-c1ccc(F)cc1)C1CC1` [Compound 78] gave an IC50 above 10 µM.

As to `CN(CCN)Cc1cn(CC2COC2)nc1-c1ccc(F)cc1` [Compound 79], the IC50 was above 10 µM.

`CN(CCN)Cc1cnn(CC2COC2)c1-c1ccc(F)cc1` [Compound 80]: the IC50 was above 10 µM.

In turn, `CN(CCN)Cc1cnn(C2COC2)c1-c1ccc(F)cc1` [Compound 81] returned an IC50 above 10 µM.

On to `CN(CCN)Cc1c[nH]nc1-c1ccc(N2CCNCC2)cc1` [Compound 82], for which the IC50 was 1.01 to 3 µM.

As for `CN(CCN)Cc1nn(C)cc1-c1ccc(C#N)cc1` [Compound 83], the IC50 was above 10 µM.

`CN(CCN)Cc1c(-c2ccc(C#N)cc2)cnn1C` [Compound 84] registered an IC50 above 10 µM.

In the case of `CN(CCN)Cc1c[nH]nc1-c1ccc(C(F)(F)F)cc1C(F)(F)F` [Compound 85], the IC50 is above 10 µM.

In turn, `CN(CCN)Cc1c[nH]nc1-c1ccc(Cl)cc1Cl` [Compound 86] registered an IC50 of 3.01 to 10 µM.

The compound `COc1ccc(-c2n[nH]cc2CN(C)CCN)c(OC)c1` [Compound 87] had an IC50 above 10 µM.

Compound `Cc1ccc(-c2n[nH]cc2CN(C)CCN)c(C)c1` [Compound 88] had an IC50 of 3.01 to 10 µM.

Regarding `CN(CCN)Cc1c[nH]nc1-c1ccc(F)cc1Cl` [Compound 89], the IC50 was in the range of 3.01 to 10 µM.

In the case of `Cc1ccc(-c2n[nH]cc2CN(C)CCN)c(Cl)c1` [Compound 90], the IC50 was in the range of 3.01 to 10 µM.

For the compound `Cc1ccc(Cl)c(-c2n[nH]cc2CN(C)CCN)c1` [Compound 91], the IC50 was above 10 µM.

Compound `CN(CCN)Cc1c[nH]nc1-c1ccc(C(F)(F)F)cc1` [Compound 92] returned an IC50 of 3.01 to 10 µM.

`CN(CCN)Cc1c[nH]nc1-c1ccc(OC(F)(F)F)cc1` [Compound 93] registered an IC50 of 3.01 to 10 µM.

In turn, `CN(CCN)Cc1c[nH]nc1-c1ccc(OC(F)F)cc1` [Compound 94] returned an IC50 of 3.01 to 10 µM.

The compound `CC(C)Oc1ccc(-c2n[nH]cc2CN(C)CCN)cc1Cl` [Compound 168] showed an IC50 of 3.01 to 10 µM.
